In the supplement of paper PMC3974653:
Counter-ions that a name gives are not always drawn.

tested on: MTT (mouse pheochromocytoma); assay: IC50 of cell viability (ATP content); settings: (24 or 48 h)
Summary of the method: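 MTT mouse pheochromocytoma cells (5 µl of 200,000 cells/ml per well, white 1536-well plates, DMEM with 5% FBS and 1% horse serum) were cultured overnight at 37°C, 5% CO2. They then received 23 nl library compound in DMSO by pintool at 8 concentrations (final 0.5 nM to 46 µM) for 24 or 48 hrs. CellTiter-Glo ATP luminescence was read after 15 minutes. Signals were normalised to positive-control (100% inhibition) and DMSO (0%) wells, and IC50 came from a four-parameter logistic fit.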

SMILES | IC50 of cell viability [µM]
CC(CC(c1ccccc1)c1ccccc1)NC(C)(C)C (centres undefined) [Terodiline hydrochloride] | > 46
CCO[C@@H](Cc1ccc(OCCc2ccc(O[S+](C)(=O)[O-])cc2)cc1)C(=O)O [Tesaglitazar] | > 46
C[C@]12C=CC(=O)C=C1CC[C@@H]1C2CC[C@]2(C)OC(=O)CCC12 (some centres undefined) [Testolactone] | > 46
C[C@]12CCC3[C@@H](CCC4=CC(=O)CC[C@@]43C)C1CCC2OC(=O)CCc1ccccc1 (some centres undefined) [Testosterone 17-phenylpropionate] | > 46
CCC(=O)O[C@@H]1CC[C@@H]2[C@@H]3CC\C4=C\C(=O)CC[C@@]4(C)[C@H]3CC[C@@]12C [Testosterone propionate] | > 46
C[C@]12CC[C@H]3[C@@H](CC/C4=C/C(=O)CC[C@]34C)[C@@H]1CC[C@H]2O [Testosterone] | > 46
COc1cc2c(cc1OC)C1CC(=O)C(CC(C)C)CN1CC2 (centres undefined) [Tetrabenazine] | > 46
CN(C)[C@@H]\1[C@@H]2C[C@H]3\C(=C(\O)[C@@]2(O)C(=O)\C(=C1O)C(N)=O)C(=O)C4=C(C=CC=C4O)[C@@]3(C)O [Tetracycline hydrochloride] | > 46
CCCCCCCCCCCCCC(=O)OC(C)C [Tetradecanoic acid, 1-methylethyl ester] | > 46
CC[N+](CC)(CC)CC.[Cl-] [Tetraethylammonium chloride] | > 46
NCCNCCNCCNCCN [Tetraethylenepentamine] | > 46
C1C[C@@H](\C2=N\CCN2)C3=C(C1)C=CC=C3 [Tetrahydrozoline hydrochloride] | > 46
O=C1OC(c2cc(I)c(O)c(I)c2)(c2cc(I)c(O)c(I)c2)c2ccccc21 [Tetraiodophenolphthalein] | > 46
CN(C)C(=S)SSC(=S)N(C)C [Tetramethylthiuram disulfide] | > 46
COC\1=C\C=C/2[C@H]3CC4=C5C(=C(OC)C=C4)OC1[C@@]25CCN3C (some centres undefined) [Thebaine] | > 46
CN1CCC(N(Cc2cccs2)c2ccccc2)CC1 [Thenalidine] | > 46
Cn1cnc2c1c(=O)[nH]c(=O)n2C [Theobromine] | > 46

SMILES | IC50 of cell viability [µM]
Cn1c(=O)c2c(ncn2CCOC(=O)C(C)(C)Oc2ccc(Cl)cc2)n(C)c1=O [Theofibrate] | > 46
C[S+](=O)([O-])c1ccc([C@H](O)[C@H](CO)NC(=O)C(Cl)Cl)cc1 [Thiamphenicol] | > 46
CCSc1ccc2c(c1)N(CCCN1CCN(C)CC1)c1ccccc1S2.O=C(O)C[C@@H](O)C(=O)O.O=C(O)C[C@@H](O)C(=O)O [Thiethylperazine malate] | > 46
COC1=C(OC)C2=C(CC[C@@H](NC(C)=O)C/3=C/C(=O)/C(=C/C=C23)SC)C=C1O[C@@H]4O[C@@H](CO)[C@@H](O)[C@@H](O)[C@H]4O [Thiocolchicoside] | > 46
O=C(CS)Nc1ccccc1 [Thioglycolic acid anilide] | > 46
CN1CCN(CCCN2c3ccccc3Sc3ccc([S+](=O)([O-])N(C)C)cc32)CC1.C[S+](=O)([O-])O.C[S+](=O)([O-])O [Thioproperazine dimesylate] | > 46
O=C(O)c1ccccc1S [Thiosalicylic acid] | > 46
S=P(N1CC1)(N1CC1)N1CC1 [Thiotepa] | > 46
CCN(CC)CCSC(=O)C(c1ccccc1)c1ccccc1 [Thiphenamil hydrochloride] | > 46
CCCCCCCCCCCCCCCC[N+](C)(C)CCN(Cc1ccc(OC)cc1)c1ncccn1 [Thonzonium bromide] | > 46
Cc1ccc(C(C)C)c(O)c1 [Thymol] | > 46
[H][C@]1(CCCN(CC\C=C(\C2=C(C)C=CS2)C3=C(C)C=CS3)C1)C(O)=O [Tiagabine hydrochloride] | > 46
CCN(CC)CCNC(=O)c1cc([S+](C)(=O)[O-])ccc1OC [Tiapride hydrochloride] | > 46
C[C@@H](C(=O)O)c1ccc(C(=O)c2ccccc2)s1 [Tiaprofenic acid] | > 46
[Na+].[Na+].CC1(C)S[C@H]2[C@H](NC(=O)[C@H](C([O-])=O)C3=CSC=C3)C(=O)[N@]2[C@H]1C([O-])=O [Ticarcillin sodium] | > 46
O=C(O)COc1ccc(C(=O)c2cccs2)c(Cl)c1Cl [Ticrynafen] | > 46
CN(C)c1cc(NC(=O)CNC(C)(C)C)c(O)c2c1C[C@H]1C[C@H]3[C@H](N(C)C)C(O)=C(C(N)=O)C(=O)[C@]3(O)C(O)=C1C2=O [Tigecycline] | > 46
